This assay has as its target c-kit WT (Homo sapiens (Human), UniProt P10721). Briefly: Proliferation assay (CellTiter-Blue) on BaF3 Kit WT cell line. It counts as cell-based. Conditions: BaF3 Kit WT cell line (murine Ba/F3 expressing Human Kit WT, with murine SCF), 48 hours. In short, it runs like this: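 Ba/F3 cells expressing human Kit WT, maintained in RPMI/10% FCS with 250 ng/ml murine SCF, were seeded at 2.10^4 cells/well and exposed to ½ serial dilutions (0–10 μM) for 48 h at 37° C. Viability was measured by CellTiter-Blue fluorescence (544Ex/590Em, 4 h) in triplicate as % of untreated proliferation.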
For orientation: The colour change of resazurin is a common sign of viable cells or microbes.
Sequence of c-kit WT (P10721 26-976): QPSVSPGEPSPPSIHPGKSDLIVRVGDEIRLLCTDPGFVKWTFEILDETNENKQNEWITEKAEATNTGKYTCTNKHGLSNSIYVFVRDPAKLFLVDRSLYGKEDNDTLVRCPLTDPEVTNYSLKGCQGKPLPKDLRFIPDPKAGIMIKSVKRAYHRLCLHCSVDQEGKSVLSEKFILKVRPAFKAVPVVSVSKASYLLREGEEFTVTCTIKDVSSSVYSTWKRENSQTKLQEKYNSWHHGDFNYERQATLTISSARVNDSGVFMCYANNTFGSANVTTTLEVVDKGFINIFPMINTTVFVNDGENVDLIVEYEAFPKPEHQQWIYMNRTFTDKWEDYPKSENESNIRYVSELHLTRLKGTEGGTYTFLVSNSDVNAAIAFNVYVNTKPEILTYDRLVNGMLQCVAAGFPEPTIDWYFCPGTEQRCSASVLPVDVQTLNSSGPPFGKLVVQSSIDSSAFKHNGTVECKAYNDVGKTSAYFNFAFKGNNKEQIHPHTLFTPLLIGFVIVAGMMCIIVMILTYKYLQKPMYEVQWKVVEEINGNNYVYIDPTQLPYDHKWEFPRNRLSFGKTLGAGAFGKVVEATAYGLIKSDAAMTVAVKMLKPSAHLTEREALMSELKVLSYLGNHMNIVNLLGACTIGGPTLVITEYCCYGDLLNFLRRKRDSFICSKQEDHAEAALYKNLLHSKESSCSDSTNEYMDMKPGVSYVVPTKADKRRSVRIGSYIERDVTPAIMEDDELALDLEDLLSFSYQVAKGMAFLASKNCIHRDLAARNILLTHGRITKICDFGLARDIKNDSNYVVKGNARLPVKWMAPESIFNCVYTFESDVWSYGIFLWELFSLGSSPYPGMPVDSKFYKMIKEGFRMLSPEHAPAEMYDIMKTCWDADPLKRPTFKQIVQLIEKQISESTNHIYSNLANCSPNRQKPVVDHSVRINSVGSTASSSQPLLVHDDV
Compound `Cc1cc2nc(-c3cccc(OC(F)(F)F)c3)[nH]c2cc1Nc1nccc(-c2cccnc2)n1` [Compound 037, [6-Methyl-2-(3-trifluoromethoxy-phenyl)-3H-benzoimidazol-5-yl]-(4-pyridin-3-yl-pyrimidin-2-yl)-amine] came in with an IC50 of 1000 to 10000 nM. `Cc1cc2[nH]c(-c3cccc(F)c3)nc2cc1Nc1nc(-c2cccnc2)cs1` [Compound 123, [2-(3-Fluoro-phenyl)-6-methyl-1H-benzoimidazol-5-yl] (4-pyridin-3-yl-thiazol-2-yl)-amine]: the IC50 lay in the range of 1000 to 10000 nM. As to `Cc1cc2nc(-c3ccc(C(F)(F)F)cc3)[nH]c2cc1Nc1nc(-c2ccc(C#N)cc2)cs1` [Compound 076, 4-{2-[6-Methyl-2-(4-trifluoromethyl-phenyl)-3H-benzoimidazol-5-ylamino]-thiazol-4-yl}-benzonitrile], the IC50 was in the range of 1000 to 10000 nM. For the compound `Cc1cc2nc(-c3cccc(C(F)F)c3)[nH]c2cc1Nc1nc(-c2cccnc2)cs1` [Compound 025, [2-(3-Difluoromethyl-phenyl)-6-methyl-3H-benzoimidazol-5-yl]-(4-pyridin-3-yl-thiazol-2-yl)-amine], the IC50 was at most 1000 nM. With `Cc1cc2nc(-c3cccc(C(F)F)c3)[nH]c2cc1Nc1nccc(-c2cccnc2)n1` [Compound 030, [2-(3-Difluoromethyl-phenyl)-6-methyl-3H-benzoimidazol-5-yl]-(4-pyridin-3-yl-pyrimidin-2-yl)-amine] the figure was at most 1000 nM; with `Cc1cc2c(cc1Nc1nc(-c3cccnc3)cs1)nc(-c1cccc(C(C)(C)C)c1)n2C` [Compound 145, [2-(3-tert-Butyl-phenyl)-1,6-dimethyl-1H-benzoimidazol-5-yl]-(4-pyridin-3-yl-thiazol-2-yl)-amine], at most 1000 nM; with `Cc1cc2nc(-c3cccc(OCCN(C)C)c3)[nH]c2cc1Nc1nccc(-c2cccnc2)n1` [Compound 016, {2-[3-(2-Dimethylamino-ethoxy)-phenyl]-6-methyl-3H-benzoimidazo1-5-yl}-(4-pyridin-3-yl-pyrimidin-2-yl)-amine], 1000 to 10000 nM.

The compound `Cc1cccc(-c2nc3cc(C)c(Nc4nc(-c5ccc(C#N)cc5)cs4)cc3[nH]2)c1` [Compound 074, 4-[2-(6-Methyl-2-m-tolyl-3H-benzoimidazol-5-ylamino)-thiazol-4-yl]-benzonitrile] had an IC50 of at most 1000 nM. In the case of `Cc1cc2[nH]c(-c3cccc(C(F)(F)F)c3)nc2cc1Nc1nc(-c2cccc(C#N)c2)cs1` [Compound 130, 3-{2-[6-Methyl-2-(3-trifluoromethyl-phenyl)-1H-benzoimidazol-5-ylamino]-thiazol-4-yl}-benzonitrile] it was at most 1000 nM. As for `Cc1cc2nc(-c3cccc(CN4CCN(C)CC4)c3)[nH]c2cc1Nc1nc(-c2ccncc2)cs1` [Compound 046, {6-Methyl-2-[3-(4-methyl-piperazin-1-ylmethyl)-phenyl]-1H-benzoimidazol-5-yl}-(4-pyridin-4-yl-thiazol-2-yl)-amine], the IC50 fell in the range of 1000 to 10000 nM.

What is called IC50 is the concentration that inhibits the measured activity by half.

The values are drawn from patent US10202370B2, “Benzimidazole derivatives as selective proteine kinase inhibitors” (AB SCIENCE, priority 2013, dated 2019).
